# Source: PubChem BioAssay AID1963864 (Molecular Pharmacology Branch, DTP, NCI, 2024)
# Tested on: KRAS PDC multicell spheroid viability
# Assay: Anticancer human tumor 521955-158-R6-J3-PDC patient-derived pancreatic carcinoma cell line growth inhibition [KRAS2]
# Conditions: for IC50: curve of first compound; for viability, T/C: stronger effect = lower value
# In short: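 KRAS-mutant tumor cells were grown as spheroids with HUVEC endothelial cells and human MSCs as stroma. Targeted agents were tested alone and with KRAS pathway inhibitors. Doses started at or near clinical Cmax, or 10 microM, descending half-log.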
# [1] = second compound 0.0316 µM, first compound 0.0316 µM
# [2] = second compound 0.0316 µM, first compound 0.1 µM
# [3] = second compound 0.0316 µM, first compound 0.316 µM
# [4] = second compound 0.0316 µM, first compound 1 µM
# [5] = second compound 0.0316 µM, first compound 3.16 µM
# [6] = second compound 0.0316 µM, first compound 10 µM
# [7] = second compound 0.1 µM, first compound 0.0316 µM
# [8] = second compound 0.1 µM, first compound 0.1 µM
# [9] = second compound 0.1 µM, first compound 0.316 µM
# [10] = second compound 0.1 µM, first compound 1 µM
# [11] = second compound 0.1 µM, first compound 3.16 µM
# [12] = second compound 0.1 µM, first compound 10 µM
# [13] = second compound 0.316 µM, first compound 0.0316 µM
# [14] = second compound 0.316 µM, first compound 0.1 µM
# [15] = second compound 0.316 µM, first compound 0.316 µM
# [16] = second compound 0.316 µM, first compound 1 µM
# [17] = second compound 0.316 µM, first compound 3.16 µM
# [18] = second compound 0.316 µM, first compound 10 µM
# [19] = second compound 1 µM, first compound 0.0316 µM
# [20] = second compound 1 µM, first compound 0.1 µM
# [21] = second compound 1 µM, first compound 0.316 µM
# [22] = second compound 1 µM, first compound 1 µM
# [23] = second compound 1 µM, first compound 3.16 µM
# [24] = second compound 1 µM, first compound 10 µM
# [25] = second compound 3.16 µM, first compound 0.0316 µM
# [26] = second compound 3.16 µM, first compound 0.1 µM
# [27] = second compound 3.16 µM, first compound 0.316 µM
# [28] = second compound 3.16 µM, first compound 1 µM
# [29] = second compound 3.16 µM, first compound 3.16 µM
# [30] = second compound 3.16 µM, first compound 10 µM
# [31] = second compound 0.0316 µM, first compound 0.000316 µM
# [32] = second compound 0.0316 µM, first compound 0.001 µM
# [33] = second compound 0.0316 µM, first compound 0.00316 µM
# [34] = second compound 0.0316 µM, first compound 0.01 µM
# [35] = second compound 0.1 µM, first compound 0.000316 µM
# [36] = second compound 0.1 µM, first compound 0.001 µM
# [37] = second compound 0.1 µM, first compound 0.00316 µM
# [38] = second compound 0.1 µM, first compound 0.01 µM
# [39] = second compound 0.316 µM, first compound 0.000316 µM
# [40] = second compound 0.316 µM, first compound 0.001 µM
# [41] = second compound 0.316 µM, first compound 0.00316 µM
# [42] = second compound 0.316 µM, first compound 0.01 µM
# [43] = second compound 1 µM, first compound 0.000316 µM
# [44] = second compound 1 µM, first compound 0.001 µM
# [45] = second compound 1 µM, first compound 0.00316 µM
# [46] = second compound 1 µM, first compound 0.01 µM
# [47] = second compound 3.16 µM, first compound 0.000316 µM
# [48] = second compound 3.16 µM, first compound 0.001 µM
# [49] = second compound 3.16 µM, first compound 0.00316 µM
# [50] = second compound 3.16 µM, first compound 0.01 µM
# 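Also: drug exposure lasted seven days.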
# 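For viability, T/C in this document: 100% = DMSO vehicle wells and lower means fewer viable cells.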
Compound,IC50 (second compound 0.0316 µM),IC50 (second compound 0.1 µM),IC50 (second compound 0.316 µM),IC50 (second compound 1 µM),IC50 (second compound 3.16 µM),"viability, T/C [1]","viability, T/C [2]","viability, T/C [3]","viability, T/C [4]","viability, T/C [7]","viability, T/C [8]","viability, T/C [9]","viability, T/C [10]","viability, T/C [13]","viability, T/C [14]","viability, T/C [15]","viability, T/C [19]","viability, T/C [20]","viability, T/C [25]","viability, T/C [26]",further results
CC(C)NCC(C(=O)N1CCN(c2ncnc3c2C(C)CC3O)CC1)c1ccc(Cl)cc1 (stereo not given) + C=CC(=O)N1CCN(c2nc(OCC3CCCN3C)nc3c2CCN(c2cccc4cccc(C)c24)C3)CC1CC#N,> 10000 nM,> 10000 nM,> 10000 nM,> 10000 nM,< 31.6 nM,80.4%,86.4%,84.4%,75.9%,76.8%,87.5%,74.4%,66.2%,79.1%,74.2%,74.3%,63.3%,59%,43.9%,38%,"viability, T/C [5]: 76.3%; viability, T/C [6]: 65%; viability, T/C [11]: 74.3%; viability, T/C [12]: 57.4%; viability, T/C [16]: 66.7%; viability, T/C [17]: 74.3%; viability, T/C [18]: 65.1%; viability, T/C [21]: 68.5%; viability, T/C [22]: 58.9%; viability, T/C [23]: 58.3%; viability, T/C [24]: 57.4%; viability, T/C [27]: 35.2%; viability, T/C [28]: 29.1%; viability, T/C [29]: 25.1%; viability, T/C [30]: 15.8%"
CC(C)n1nc(-c2ccc3oc(N)nc3c2)c2c(N)ncnc21 + C=CC(=O)N1CCN(c2nc(OCC3CCCN3C)nc3c2CCN(c2cccc4cccc(C)c24)C3)CC1CC#N,69.1 nM,67.9 nM,72.8 nM,87.1 nM,3.47 nM,63%,44.8%,,,59.8%,44.2%,,,60.3%,45.9%,,61.2%,47%,39.6%,21.8%,"viability, T/C [31]: 98%; viability, T/C [32]: 86.7%; viability, T/C [33]: 85.4%; viability, T/C [34]: 62.3%; viability, T/C [35]: 90.8%; viability, T/C [36]: 86.4%; viability, T/C [37]: 78.2%; viability, T/C [38]: 77.6%; viability, T/C [39]: 94.2%; viability, T/C [40]: 90.7%; viability, T/C [41]: 80.6%; viability, T/C [42]: 74.4%; viability, T/C [43]: 81.8%; viability, T/C [44]: 68.6%; viability, T/C [45]: 73.3%; viability, T/C [46]: 54.2%; viability, T/C [47]: 60.7%; viability, T/C [48]: 41.7%; viability, T/C [49]: 54.5%; viability, T/C [50]: 8.94%"
CC1(C)CCC(CN2CCN(c3ccc(C(=O)NS(=O)(=O)c4ccc(NCC5CCOCC5)c([N+](=O)[O-])c4)c(Oc4cnc5[nH]ccc5c4)c3)CC2)=C(c2ccc(Cl)cc2)C1 + C=CC(=O)N1CCN(c2nc(OCC3CCCN3C)nc3c2CCN(c2cccc4cccc(C)c24)C3)CC1CC#N,3860 nM,4480 nM,2680 nM,1920 nM,< 31.6 nM,104%,97.5%,95.6%,92.7%,93.5%,97.3%,90.6%,91.9%,92%,95.8%,101%,82.4%,78.2%,45.2%,48.4%,"viability, T/C [5]: 57.3%; viability, T/C [6]: 14.4%; viability, T/C [11]: 64.2%; viability, T/C [12]: 17%; viability, T/C [16]: 97.2%; viability, T/C [17]: 42.1%; viability, T/C [18]: 15.4%; viability, T/C [21]: 80.1%; viability, T/C [22]: 76.9%; viability, T/C [23]: 29.4%; viability, T/C [24]: 6.62%; viability, T/C [27]: 24.2%; viability, T/C [28]: 8.37%; viability, T/C [29]: 0.18%; viability, T/C [30]: 0.23%"
CCN1CCN(Cc2ccc(Nc3ncc(F)c(-c4cc(F)c5nc(C)n(C(C)C)c5c4)n3)nc2)CC1 + C=CC(=O)N1CCN(c2nc(OCC3CCCN3C)nc3c2CCN(c2cccc4cccc(C)c24)C3)CC1CC#N,> 1000 nM,> 1000 nM,> 1000 nM,> 1000 nM,< 3.16 nM,76%,76.1%,82.8%,95.1%,81.4%,85.7%,82.9%,98.8%,76.5%,77.2%,87.8%,71.3%,65.2%,25.9%,17.1%,"viability, T/C [33]: 94.4%; viability, T/C [34]: 81.9%; viability, T/C [37]: 88.3%; viability, T/C [38]: 93.6%; viability, T/C [41]: 86.1%; viability, T/C [42]: 86.4%; viability, T/C [16]: 91.9%; viability, T/C [45]: 72%; viability, T/C [46]: 84.5%; viability, T/C [21]: 79.9%; viability, T/C [22]: 103%; viability, T/C [49]: 24.9%; viability, T/C [50]: 26.4%; viability, T/C [27]: 15.3%; viability, T/C [28]: 4.09%"
CCNC(=O)CC1N=C(c2ccc(Cl)cc2)c2cc(OC)ccc2-n2c(C)nnc21 (stereo not given) + C=CC(=O)N1CCN(c2nc(OCC3CCCN3C)nc3c2CCN(c2cccc4cccc(C)c24)C3)CC1CC#N,> 10000 nM,> 10000 nM,> 10000 nM,> 10000 nM,101 nM,106%,87.1%,64.3%,74.9%,88.6%,102%,78.4%,69.3%,101%,93.2%,76%,86.6%,83.9%,47%,53.1%,"viability, T/C [5]: 83.2%; viability, T/C [6]: 76.6%; viability, T/C [11]: 73.1%; viability, T/C [12]: 75.9%; viability, T/C [16]: 74.5%; viability, T/C [17]: 77.1%; viability, T/C [18]: 69.2%; viability, T/C [21]: 77.8%; viability, T/C [22]: 62.2%; viability, T/C [23]: 69.6%; viability, T/C [24]: 81%; viability, T/C [27]: 30.5%; viability, T/C [28]: 1.65%; viability, T/C [29]: 31%; viability, T/C [30]: 35.1%"
Cn1ncnc1[C@H]1c2n[nH]c(=O)c3cc(F)cc(c23)N[C@@H]1c1ccc(F)cc1 + C=CC(=O)N1CCN(c2nc(OCC3CCCN3C)nc3c2CCN(c2cccc4cccc(C)c24)C3)CC1CC#N,> 100 nM,> 100 nM,> 100 nM,> 100 nM,< 0.316 nM,97%,90.8%,,,98.9%,89.4%,,,92.2%,91%,,78.6%,85.4%,52.6%,53.6%,"viability, T/C [31]: 100%; viability, T/C [32]: 100%; viability, T/C [33]: 98.1%; viability, T/C [34]: 105%; viability, T/C [35]: 94.2%; viability, T/C [36]: 94.5%; viability, T/C [37]: 104%; viability, T/C [38]: 91.9%; viability, T/C [39]: 94.1%; viability, T/C [40]: 89.9%; viability, T/C [41]: 95.1%; viability, T/C [42]: 88.4%; viability, T/C [43]: 83.8%; viability, T/C [44]: 78.6%; viability, T/C [45]: 88.3%; viability, T/C [46]: 91.7%; viability, T/C [47]: 50.4%; viability, T/C [48]: 43.3%; viability, T/C [49]: 53.2%; viability, T/C [50]: 54.5%"
